For experiment [1], the target named is recombinant human p38α (Homo sapiens, UniProt Q16539). As to the kind of experiment: Purified and activated recombinant human p38α HTRF kinase assay. It counts as biochemical. The settings on record: 1 nM p38α, 50 μM ATP, GST-ATF2 substrate, read-out: p38a IC50. The method, then: Purified and Activated Recombinant Human p38α Assay
• Kinase Reaction Buffer: Kinase reaction buffer for p38α HTRF assays consists of 50 mM Tris-pH 7.5, 5 mM MgCl2, 0.1 mg/mL BSA, 100 μM Na3VO4 and 0.5 mM DTT. • HTRF Detection Buffer: HTRF detection buffer contains 100 mM HEPES-pH 7.5, 100 mM NaCl, 0.1% BSA, 0.05% Tween-20, and 10 mM EDTA. • Serial Dilution of Compounds: Compounds were dissolved in 100% DMSO and serially diluted (3 fold, 10 point) in a polypropylene 96-well microtiter plate (drug plate). The final starting concentration of compounds in the p38α enzymatic assays was 1 μM. Columns 6 and 12 (HI controls and LO controls respectively) in the drug plate were reserved as controls and contained only DMSO. • Kinase Reaction The p38α kinase reactions were carried out in a polypropylene 96-well black round bottom assay plate in total volume of 30 μL kinase reaction buffer. Appropriate concentration of purified and activated enzyme (recombinant human) was mixed with indicated concentration of ATP and 100 nM GST-ATF2-Avitag, in the presence or absence (HI control) of Compound. See table below for actual concentrations. In the absence of substrate, the background was measured as LO control. The reaction was allowed to incubate for 1 hour at RT. • Assay Reagent Concentrations: The final reagent concentrations were 1 nM p38α and 50 μM ATP. […] After 60 minutes incubation at room temperature, the assay plate was read in a Discovery Plate Reader. The wells were excited with coherent 320 nm light and the ratio of delayed ([…] post excitation) emissions at […] (native europium fluorescence) and 665 nm (europium fluorescence transferred to allophycocyanin—an index of substrate phosphorylation) was determined (Park et al, 1999). • Data Analysis: The proportion of substrate phosphorylated in the kinase reaction in the presence of compound compared with that phosphorylated in the presence of DMSO vehicle alone (HI control) was calculated using the formula: % control (POC)=(compound−average LO)/(average HI−average LO)*100. Data (consisting of POC and inhibitor concentration in μM) was fitted to a 4-parameter equation (y=A+((B−A)/(1+((x/C)^D))), where A is the minimum y (POC) value, B is the maximum y (POC), C is the x (compound concentration) at the point of inflection and D is the slope factor, using a Levenburg-Marquardt non-linear regression algorithm.
The inhibition constant (Ki) of the inhibitor was estimated from the IC50 (compound concentration at the point of inflection C) using the Cheng-Prussof equation: Ki=IC50/(1+S/Km), where S is the ATP substrate concentration, and Km is the Michaelis constant for ATP as determined experimentally. All results were expressed as the mean±the standard error of the mean. Data acquisition and non-linear regression algorithms were performed using Activity Base v5.2 and XL-fit software v4.1 respectively. All data was archived using Activity Base v5.2 software.

Experiment [2] deals with TNF-α secretion by LPS-treated THP1 cells. As to the kind of experiment: Lipopolysaccharide-activated THP1 cell TNF production assay. The settings on record: Homo sapiens, THP-1; LPS, 3 hours, THP1 cells; read-out: IC50 in the THP-1 cellular TNF production assay. The class given is cell-based. The method, then: Lipopolysaccharide-Activated THP1 Cell TNF Production Assay
THP1 cells were resuspended in fresh THP1 media (RPMI 1640, 10% heat-inactivated FBS, 1×PGS, 1×NEAA, plus 30 μM βME) at a concentration of 1.5×10^6 cells per mL. One hundred microliters of cells per well were plated in a polystyrene 96-well tissue culture plate. 1.5 micrograms per mL of bacterial LPS was prepared in THP1 media and transferred to the first 11 columns of a 96-well polypropylene plate. Column 12 contained only THP1 media for the LO control. Compounds were dissolved in 100% DMSO and serially diluted 3 fold in a polypropylene 96-well microtiter plate (drug plate). Columns 6 and 12 were reserved as controls (HI controls and LO controls respectively) and contained only DMSO. 10 μL of LPS followed by one microliter of inhibitor compound from the drug plate was transferred to the cell plate. The treated cells were induced to synthesize and secrete TNF-α in a 37° C. humidified incubator with 5% CO2 for 3 hours. Fifty microliters of conditioned media was transferred to a 96-well MULTI-ARRAY™ 96-well small spot plate—custom coated with MAB610 containing 100 μL of 2× Read Buffer P supplemented with 0.34 nM AF210NA polyclonal Ab labeled with ruthenium (MSD-Sulfo-TAG™-NHS ester). After an overnight incubation at room temperature with shaking, the reaction was read on the Sector Imager™ 6000. […] The amount of secreted TNF-α in the presence of AMG compounds compared with that in the presence of DMSO vehicle alone (HI control) was calculated using the formula: % control (POC)=(cpd−average LO)/(average HI−averageLO)*100. Data (consisting of POC and inhibitor concentration in μM) was fitted to a 4-parameter equation (y=A+((B−A)/(1+((x/C)^D))), where A is the minimum y (POC) value, B is the maximum y (POC), C is the x (cpd concentration) at the point of inflection and D is the slope factor) using a Levenburg-Marquardt non-linear regression algorithm.

recombinant human p38α, sequence (Q16539 whole entry): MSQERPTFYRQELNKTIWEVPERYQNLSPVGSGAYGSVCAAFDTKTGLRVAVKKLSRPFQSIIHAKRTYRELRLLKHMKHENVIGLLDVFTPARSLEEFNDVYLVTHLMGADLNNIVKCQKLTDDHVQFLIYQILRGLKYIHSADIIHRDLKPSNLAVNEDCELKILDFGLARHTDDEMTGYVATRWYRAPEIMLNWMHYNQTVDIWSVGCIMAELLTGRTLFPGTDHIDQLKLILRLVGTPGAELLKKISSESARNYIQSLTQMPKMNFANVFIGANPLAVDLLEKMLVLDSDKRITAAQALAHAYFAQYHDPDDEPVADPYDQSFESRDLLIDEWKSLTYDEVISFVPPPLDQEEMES

Consider `Cc1c(F)cc(C(N)=O)cc1-c1cc2cnn(-c3ccccc3Cl)c2n(C)c1=O` [Example 1, 3-(1-(2-chlorophenyl)-7-methyl-6-oxo-6,7-dihydro-1H-pyrazolo[3,4-b]pyridin-5-yl)-5-fluoro-4-methylbenzamide], for which the figures for the IC50 in experiment [1] and in experiment [2] were 2.3 nM and not above 175 nM, respectively.

For the molecule `Cc1ccc(C(=O)Nc2ccon2)cc1-c1cc2cnn(-c3c(F)cccc3F)c2n(C)c1=O` [Example 18, 3-(1-(2,6-difluorophenyl)-7-methyl-6-oxo-6,7-dihydro-1H-pyrazolo[3,4-b]pyridin-5-yl)-N-3-isoxazolyl-4-methylbenzamide], the IC50 is 3 nM in experiment [1] and not above 175 nM in experiment [2].

Regarding `Cc1c(F)cc(C(=O)NC2CC2)cc1-c1cc2cnn(C(C)C)c2n(C)c1=O` [Example 17, N-cyclopropyl-3-fluoro-4-methyl-5-(7-methyl-1-(1-methylethyl)-6-oxo-6,7-dihydro-1H-pyrazolo[3,4-b]pyridin-5-yl)benzamide], the half-maximal inhibitory concentration (IC50) in experiment [2] is not above 175 nM.

Take `Cc1c(F)cc(C(=O)NC2CC2)cc1-c1cc2cnn(-c3ccccc3F)c2n(C)c1=O` [Example 9, N-cyclopropyl-3-fluoro-5-(1-(2-fluorophenyl)-7-methyl-6-oxo-6,7-dihydro-1H-pyrazolo[3,4-b]pyridin-5-yl)-4-methylbenzamide]: the figures for the IC50 in experiment [1] and in experiment [2] were 2.2 nM and not above 175 nM, respectively.

On to `Cc1c(F)cc(C(=O)NC2CC2)cc1-c1cc2cnn(-c3ccc(F)cc3F)c2n(C)c1=O` [Example 11, N-cyclopropyl-3-(1-(2,4-difluorophenyl)-7-methyl-6-oxo-6,7-dihydro-1H-pyrazolo[3,4-b]pyridin-5-yl)-5-fluoro-4-methylbenzamide], for which the figures for the IC50 in experiment [1] and in experiment [2] were 2.6 nM and not above 175 nM, respectively.

`Cn1c(=O)c(-c2cc(C(=O)NC3CC3)ccc2Cl)cc2cnn(-c3cc(F)ccc3F)c21` [Example 29, 4-chloro-N-cyclopropyl-3-(1-(2,5-difluorophenyl)-7-methyl-6-oxo-6,7-dihydro-1H-pyrazolo[3,4-b]pyridin-5-yl)benzamide]: in experiment [2], the IC50 is not above 175 nM.

For `Cc1ccc(C(=O)NC2CC2)cc1-c1cc2cnn(-c3ccc(F)cc3)c2n(C)c1=O` [Example 52, N-cyclopropyl-3-(1-(4-fluorophenyl)-7-methyl-6-oxo-6,7-dihydro-1H-pyrazolo[3,4-b]pyridin-5-yl)-4-methylbenzamide], the results for the IC50 in experiment [1] and in experiment [2] were 6.1 nM and not above 175 nM, respectively.

Turning to `Cn1c(=O)c(-c2cc(C(=O)NC3CC3)ccc2Cl)cc2cnn(-c3ccc(F)cc3)c21` [Example 53, 4-chloro-N-cyclopropyl-3-(1-(4-fluorophenyl)-7-methyl-6-oxo-6,7-dihydro-1H-pyrazolo[3,4-b]pyridin-5-yl)benzamide], the results for the IC50 in experiment [1] and in experiment [2] were 6 nM and not above 175 nM, respectively.

As for `Cc1ccc(C(=O)NC2CC2)cc1-c1cc2cnn(-c3cc(F)ccc3F)c2n(C)c1=O` [Example 24, N-cyclopropyl-3-(1-(2,5-difluorophenyl)-7-methyl-6-oxo-6,7-dihydro-1H-pyrazolo[3,4-b]pyridin-5-yl)-4-methylbenzamide], the IC50 was 6.2 nM in experiment [1] and not above 175 nM in experiment [2].

In the case of `Cn1c(=O)c(-c2cc(C(=O)NC3CC3)ccc2CO)cc2cnn(-c3c(F)cccc3F)c21` [Example 32, N-cyclopropyl-3-(1-(2,6-difluorophenyl)-7-methyl-6-oxo-6,7-dihydro-1H-pyrazolo[3,4-b]pyridin-5-yl)-4-(hydroxymethyl)benzamide], the IC50 in experiment [1] is 21 nM; in experiment [2], not above 175 nM.

Turning to `Cc1c(F)cc(C(=O)NC2CC2)cc1-c1cc2cnn(-c3cc(F)ccc3F)c2n(C)c1=O` [Example 23, N-cyclopropyl-3-(1-(2,5-difluorophenyl)-7-methyl-6-oxo-6,7-dihydro-1H-pyrazolo[3,4-b]pyridin-5-yl)-5-fluoro-4-methylbenzamide], the IC50 was 3.9 nM in experiment [1] and not above 175 nM in experiment [2].

As for `CCn1c(=O)c(-c2cc(C(=O)NC3CC3)cc(F)c2C)cc2cnn(-c3ccccc3F)c21` [Example 6, N-cyclopropyl-3-(7-ethyl-1-(2-fluorophenyl)-6-oxo-6,7-dihydro-1H-pyrazolo[3,4-b]pyridin-5-yl)-5-fluoro-4-methylbenzamide], the IC50 in experiment [1] was 2.5 nM; in experiment [2] it was not above 175 nM.

For `Cc1ccc(C(=O)NC2CC2)cc1-c1cc2cnn(-c3c(F)cccc3F)c2n(C)c1=S` [Example 34, N-cyclopropyl-3-(1-(2,6-difluorophenyl)-7-methyl-6-thioxo-6,7-dihydro-1H-pyrazolo[3,4-b]pyridin-5-yl)-4-methylbenzamide], the IC50 in experiment [1] is 2.6 nM; in experiment [2] it was not above 175 nM.

With `Cc1ccc(C(=O)NC2CC2)cc1-c1cc2cnn(-c3ccc(F)cc3F)c2n(CC(O)CO)c1=O` (stereo not drawn) [Example 35, N-cyclopropyl-3-(1-(2,4-difluorophenyl)-7-(2,3-dihydroxypropyl)-6-oxo-6,7-dihydro-1H-pyrazolo[3,4-b]pyridin-5-yl)-4-methylbenzamide], the IC50 is 34 nM in experiment [1] and not above 175 nM in experiment [2].

On to `Cc1cnc(C(=O)NC2CC2)cc1-c1cc2cnn(-c3c(F)cccc3F)c2n(C)c1=O` [Example 19, N-cyclopropyl-4-(1-(2,6-difluorophenyl)-7-methyl-6-oxo-6,7-dihydro-1H-pyrazolo[3,4-b]pyridin-5-yl)-5-methyl-2-pyridinecarboxamide], for which the IC50 in experiment [1] was 18 nM; in experiment [2] it was not above 175 nM.

On to `Cc1ccc(C(=O)Nc2ccon2)cc1-c1cc2cnn(-c3cc(F)ccc3F)c2n(C)c1=O` [Example 26, 3-(1-(2,5-difluorophenyl)-7-methyl-6-oxo-6,7-dihydro-1H-pyrazolo[3,4-b]pyridin-5-yl)-N-3-isoxazolyl-4-methylbenzamide], for which the IC50 was 2.3 nM in experiment [1] and not above 175 nM in experiment [2].

In the case of `Cc1ccccc1-n1ncc2cc(-c3cc(C(=O)NC4CC4)cc(F)c3C)c(=O)n(C)c21` [Example 15, N-cyclopropyl-3-fluoro-4-methyl-5-(7-methyl-1-(2-methylphenyl)-6-oxo-6,7-dihydro-1H-pyrazolo[3,4-b]pyridin-5-yl)benzamide], the IC50 in experiment [1] was 5.2 nM; in experiment [2], not above 175 nM.

`Cc1ccc(C(=O)NC2(C)CC2)cc1-c1cc2cnn(-c3c(F)cccc3F)c2n(C)c1=O` [Example 30, 3-(1-(2,6-difluorophenyl)-7-methyl-6-oxo-6,7-dihydro-1H-pyrazolo[3,4-b]pyridin-5-yl)-4-methyl-N-(1-methylcyclopropyl)benzamide]: the IC50 in experiment [2] is not above 175 nM.

(Values after patent US7846944B2, “Pyrazolo-pyridinone compounds and methods of use thereof” (Amgen Inc., priority 2007, dated 2010).)
